The values below are quoted from earlier work in US20090202672A1, “AQUACULTURE FEED, PRODUCTS, AND METHODS COMPRISING BENEFICIAL FATTY ACIDS” (Monsanto Company, priority 2008, published 2009).

Data set [1] relates to cell line from turbot, Scopthalmus maximus. The following applies: Ghioni et al 1999.
Data set [2] relates to established cell line from Atlantic salmon, Salmo salar. Particulars: Ghioni et al 2004.

SMILES strings stand for the structures.

As to `CC/C=C\C/C=C\C/C=C\C/C=C\CCCCC(=O)O` [SDA, stearidonic acid], the “Conversion of SDA to EPA” value in data set [1] is “limited conversion of SDA to EPA”. For the same compound, the “Bioconversion of SDA to EPA and DHA” value in data set [2] is “bioconversion of SDA to EPA, but not DHA”.
